From patent US20030022856A1, “Method for sustained release local delivery of drugs for ablation of unwanted tissue” (The Regents Of The University of Michigan, priority 2001, published 2003)

System: organ cultured adipose tissue (epididymal fat tissue)
Assay: Adipose organ culture apoptosis assay (Bax immunostaining)
Assay type: cell-based, rat
Conditions: seven days incubation, 1 μg TNF-α
Experimental: Epididymal fat tissue was excised and cut into pieces (1 cm^3), and cultured. Briefly, tissue was placed in Dulbecco's Modified Eagle Medium containing 10% fetal bovine serum and penicillin/streptomycin, and incubated at 37° C. Samples (n=3) were injected with PBS, TNF-α protein (1 μg), blank microspheres, or microspheres containing TNF-α (total 1 μg TNF-α) and incubated at 37° C. After 3 or 7 days, the tissue was rinsed 1× with PBS, placed in 3.7% formaldehyde overnight and stored in 70% ethanol prior to sectioning for histology.
Tissue samples were bisected and subjected to butyl processing and paraffinization by standard procedures, at the histology core facility at the University of Michigan School of Dentistry. This process removes all lipids droplets from the tissue, enabling reproducible and rapid staining. […] Samples were counterstained with hematoxylin, imaged using a Nikon Eclipse E800, and Bax positive and negative cells were counted manually from at least 10 randomly chosen fields. Data were subjected to statistical analysis to determine the significance of the difference (P<0.05) among the measured population proportions of Bax positive cells, using a binomial equation. […]

Q: Which “Bax staining of adipose tissue” value does the source give for “tumor necrosis factor-alpha [TNF-α protein]” here?
A: Its value is “high levels of staining”.

Q: And the “percentage of Bax positive cells (apoptotic cells)” value (1 cm^3 explanted tissue)?
A: Its value is 54%.
